Measurements published in patent US20190343796A1, “COMPOSITION FOR EXTERNAL USE” (FUJIFILM Toyama Chemical Co., Ltd., priority 2016, published 2019).

Assay: Solubility of maleate of compound A in representative solvents
Format: physicochemical
Excerpt: Among these solvents, a solvent having a high solubility of compound A and a salt thereof is preferred.

## OC1CN(CCCOCCc2ccc3sccc3c2)C1 [maleate of compound A, 1-(3-(2-(1-benzothiophen-5-yl)ethoxy)propyl)azetidin-3-ol]
Benzyl alcohol, 25° C.
  Solubility of maleate of compound A at 25° C.: 35 g/100 g of solvent
Butylene glycol, 25° C.
  Solubility of maleate of compound A at 25° C.: 5 g/100 g of solvent
Dimethyl sulfoxide, 25° C.
  Solubility of maleate of compound A at 25° C.: >50 g/100 g of solvent
Dipropylene glycol, 25° C.
  Solubility of maleate of compound A at 25° C.: 8 g/100 g of solvent
Ethanol, 25° C.
  Solubility of maleate of compound A at 25° C.: 3 g/100 g of solvent
N-methyl-2-pyrrolidone, 25° C.
  Solubility of maleate of compound A at 25° C.: >50 g/100 g of solvent
Polyethylene glycol 200, 25° C.
  Solubility of maleate of compound A at 25° C.: 10 g/100 g of solvent
Polyethylene glycol 400, 25° C.
  Solubility of maleate of compound A at 25° C.: 16 g/100 g of solvent
Propylene glycol, 25° C.
  Solubility of maleate of compound A at 25° C.: 10 g/100 g of solvent
